Holding throughout (format): in vivo
Assay [1] relates to Kochia (Kochia scoparia). Kind of assay: Test A preemergence. The following applies: Bassia scoparia, pre-emergence, 240 h. Summed up:
(§1)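 Seeded soil received test chemicals as a preemergence directed spray, and seedlings at one to two leaves, 2–10 cm tall, received them postemergence, in a non-phytotoxic, surfactant-containing solvent mixture. Pots were held in a greenhouse for approximately 10 d, then rated for injury from 0, no effect, to 100, complete control.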

In assay [2] the test system is barnyardgrass (Echinochloa crus-galli). Kind of assay: Test A preemergence. Conditions: Echinochloa crus-galli, pre-emergence, 240 h. Summed up: as §1
For assay [3], the system named is giant foxtail (Setaria faberii). The assay can be described thus: Test A preemergence. Conditions: Setaria faberi, pre-emergence, 240 h. The procedure, abridged:
as §1

For assay [4], the system named is pigweed (Amaranthus retroflexus). The assay can be described thus: Test A preemergence. The following applies: Amaranthus retroflexus, pre-emergence, 240 h.
Assay [5] concerns ragweed (common ragweed, Ambrosia elatior). Kind of assay: Test A preemergence. The following applies: Ambrosia artemisiifolia, pre-emergence, 240 h. The procedure, abridged: as §1
For assay [6], the system named is ryegrass, Italian (Italian ryegrass, Lolium multiflorum). The assay can be described thus: Test A preemergence. The following applies: Lolium multiflorum, pre-emergence, 240 h. The procedure, abridged:
as §1

The subject of assay [7] is Galium (catchweed bedstraw, Galium aparine). The assay can be described thus: Test A postemergence. Conditions: Galium, post-emergence, 240 h, 125 g ai/ha, postemergence, visual injury rating after approximately 10 d; read-out: Galium plant response rating (0 to 100 scale, 0 no effect, 100 complete control). Summed up:
as §1

Assay [8] deals with Kochia (Kochia scoparia). Kind of assay: Test A postemergence. The following applies: Bassia scoparia, post-emergence, 240 h, 125 g ai/ha, postemergence, visual injury rating after approximately 10 d; read-out: Kochia plant response rating (0 to 100 scale, 0 no effect, 100 complete control). The procedure, abridged:
as §1

The subject of assay [9] is barnyardgrass (Echinochloa crus-galli). Kind of assay: Test A postemergence. Conditions: Echinochloa crus-galli, post-emergence, 240 h, 125 g ai/ha, postemergence, visual injury rating after approximately 10 d; read-out: Barnyardgrass plant response rating (0 to 100 scale, 0 no effect, 100 complete control). The procedure, abridged:
as §1

The test system of another assay is corn (Zea mays). Kind of assay: Test A postemergence. The following applies: Zea mays, post-emergence, 240 h, 125 g ai/ha, postemergence, visual injury rating after approximately 10 d; read-out: Corn plant response rating (0 to 100 scale, 0 no effect, 100 complete control). The procedure, abridged: as §1
The test system of assay [10] is giant foxtail (Setaria faberii). Kind of assay: Test A postemergence. Conditions: Setaria faberi, post-emergence, 240 h, 125 g ai/ha, postemergence, visual injury rating after approximately 10 d; read-out: Foxtail, Giant plant response rating (0 to 100 scale, 0 no effect, 100 complete control). The procedure, abridged: as §1
The subject of assay [11] is pigweed (Amaranthus retroflexus). The assay can be described thus: Test A postemergence. The following applies: Amaranthus retroflexus, post-emergence, 240 h, 125 g ai/ha, postemergence, visual injury rating after approximately 10 d; read-out: Pigweed plant response rating (0 to 100 scale, 0 no effect, 100 complete control). Summed up: as §1
The test system of assay [12] is ragweed (common ragweed, Ambrosia elatior). The assay can be described thus: Test A postemergence. Conditions: Ambrosia artemisiifolia, post-emergence, 240 h, 125 g ai/ha, postemergence, visual injury rating after approximately 10 d; read-out: Ragweed plant response rating (0 to 100 scale, 0 no effect, 100 complete control). The procedure, abridged:
as §1

Assay [13] has as its system ryegrass, Italian (Italian ryegrass, Lolium multiflorum). The assay can be described thus: Test A postemergence. The following applies: Lolium multiflorum, post-emergence, 240 h, 125 g ai/ha, postemergence, visual injury rating after approximately 10 d; read-out: Ryegrass, Italian plant response rating (0 to 100 scale, 0 no effect, 100 complete control). The procedure, abridged:
as §1

Assay [14] concerns wheat (Triticum aestivum). The assay can be described thus: Test A postemergence. Conditions: Triticum aestivum, post-emergence, 240 h, 125 g ai/ha, postemergence, visual injury rating after approximately 10 d; read-out: Wheat plant response rating (0 to 100 scale, 0 no effect, 100 complete control). The procedure, abridged:
as §1

One compound from patent US12077503B2, “Substituted cyclic amides and their use as herbicides” (FMC CORPORATION, priority 2015, dated 2024) can be followed below.

As for `CN1C[C@H](c2cccc(F)c2)[C@@H](C(=O)Nc2ccccc2C(F)(F)F)C1=O` [Compound 823], the pest or weed control at 125 g/ha came out at 0% with Kochia (Kochia scoparia) [1] (125 g ai/ha, preemergence, 0 to 100 scale where 0 is no effect and 100 is complete control, read-out: Kochia plant response rating); 90% in [2] (125 g ai/ha, preemergence, 0 to 100 scale where 0 is no effect and 100 is complete control, read-out: Barnyardgrass plant response rating); 100% in [3] (125 g ai/ha, preemergence, 0 to 100 scale where 0 is no effect and 100 is complete control, read-out: Foxtail, Giant plant response rating); 0% in assay [4] (125 g ai/ha, preemergence, 0 to 100 scale where 0 is no effect and 100 is complete control, read-out: Pigweed plant response rating); 0% in assay [5] (125 g ai/ha, preemergence, 0 to 100 scale where 0 is no effect and 100 is complete control, read-out: Ragweed plant response rating); 30% in [6] (125 g ai/ha, preemergence, 0 to 100 scale where 0 is no effect and 100 is complete control, read-out: Ryegrass, Italian plant response rating). The pest or weed control at 125 g/ha in assay [7] turned out to be 30%; with Kochia (Kochia scoparia) [8], 20%; in assay [9], 90%; in assay [10], 90%; in assay [11], 20%; in assay [12], 20%. Further, the pest or weed control at 125 g/ha in assay [13] was found to be 0%. In addition, the pest or weed control at 500 g/ha in the assay with Kochia (Kochia scoparia) [1] (500 g ai/ha, Preemergence, visual injury vs untreated controls after approximately 10 d, read-out: Kochia plant response rating (0 to 100 scale where 0 is no effect and 100 is complete control)) amounted to 70%; in [2] (500 g ai/ha, Preemergence, visual injury vs untreated controls after approximately 10 d, read-out: Barnyardgrass plant response rating (0 to 100 scale where 0 is no effect and 100 is complete control)), 100%; in assay [3] (500 g ai/ha, Preemergence, visual injury vs untreated controls after approximately 10 d, read-out: Foxtail, Giant plant response rating (0 to 100 scale where 0 is no effect and 100 is complete control)), 100%; in assay [4] (500 g ai/ha, Preemergence, visual injury vs untreated controls after approximately 10 d, read-out: Pigweed plant response rating (0 to 100 scale where 0 is no effect and 100 is complete control)) it was 50%; in assay [5] (500 g ai/ha, Preemergence, visual injury vs untreated controls after approximately 10 d, read-out: Ragweed plant response rating (0 to 100 scale where 0 is no effect and 100 is complete control)), 40%; in assay [6] (500 g ai/ha, Preemergence, visual injury vs untreated controls after approximately 10 d, read-out: Ryegrass, Italian plant response rating (0 to 100 scale where 0 is no effect and 100 is complete control)), 60%. In addition, the plant injury at 125 g/ha (with corn (Zea mays); in [14]) was 0% each time.
